Measurements from patent EP0597303A2, “Cephalosporin derivatives” (priority 1992, dated 1994).
Structures can show the parent of a compound that is named as a salt. Where two headings read alike, the source gives them in different places.

Assays:
Test in all cases: MIC, Agar (Mueller Hinton) Dilution Method
Format in all cases: cell-based
[1] = system: Bacillus megaterium 164; settings: Priestia megaterium; Bacillus megaterium 164; Gram Positive and Others; read-out: MIC
Summary of the method: (§1)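 In vitro antibacterial activity was determined by agar dilution on Mueller Hinton medium across a panel of Gram-positive and Gram-negative organisms. Values are minimum inhibitory concentrations expressed in micrograms/ml.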

[2] = system: Bacillus subtilis 558
Summary of the method: as §1

[3] = system: Candida albicans 155; settings: Gram Positive and Others
Summary of the method: (§2)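 Read-out: minimum inhibitory concentration (micrograms/ml), obtained in vitro with the Mueller Hinton agar dilution technique on mixed Gram-positive/Gram-negative organisms.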

[4] = system: Cit. freundii EL-1408; settings: Citrobacter freundii, EL1408; Cit. freundii EL-1408; Gram Negative; read-out: MIC
Summary of the method: as §1

[5] = system: Citrobacter freundii BS-16; settings: BS16; Citrobacter freundii BS-16; constitutive ß-lactamase producer; Gram Negative; read-out: MIC
Summary of the method: as §1

[6] = system: E. coli 1269B; settings: Escherichia coli, Gram Negative
Summary of the method: as §1

[7] = system: E. coli 1573E; settings: Escherichia coli
Summary of the method: as §1

[8] = system: E. coli 2008 E; settings: Escherichia coli; E. coli 2008 E; Gram Negative; read-out: MIC
Summary of the method: as §1

[9] = system: E. coli 2721B; settings: Escherichia coli; E. coli 2721B; Gram Negative; read-out: MIC
Summary of the method: as §1

[10] = system: E. coli 2722B; settings: Escherichia coli, Gram Negative
Summary of the method: as §1

[11] = system: E. coli 4; settings: Escherichia coli
Summary of the method: as §1

[12] = system: E. coli ATCC 25922; settings: Escherichia coli, ATCC25922
Summary of the method: as §1

[13] = system: E. coli DC-2; settings: Escherichia coli, DC2, Gram Negative
Summary of the method: as §1

[14] = system: E. coli Leo HA2; settings: Escherichia coli, LEOHA2, Gram Negative
Summary of the method: as §1

[15] = system: E. coli TEM-1a; settings: Escherichia coli, TEM1A
Summary of the method: as §2

[16] = system: Enter. cloacae 4946; settings: Enterobacter cloacae, Gram Negative
Summary of the method: as §1

[17] = system: Enter. cloacae 5699; settings: Enterobacter cloacae, Gram Negative
Summary of the method: as §1

[18] = system: Enterobacter cloacae P99
Summary of the method: as §2

[19] = system: Escherichia coli 257; settings: Gram Negative
Summary of the method: as §1

[20] = system: K. oxytoca 1082EN; settings: Klebsiella oxytoca
Summary of the method: as §1

[21] = system: Micrococcus luteus PCI
Summary of the method: as §1

[22] = system: Mycobacterium phlei 78; settings: Mycolicibacterium phlei; Mycobacterium phlei 78; Gram Positive and Others; read-out: MIC
Summary of the method: as §1

[23] = system: Prot. mirabilis 190; settings: Proteus mirabilis; Prot. mirabilis 190; Gram Negative; read-out: MIC
Summary of the method: as §1

[24] = system: Prot. mirabilis 503-1136; settings: Proteus mirabilis, 5031136; Prot. mirabilis 503-1136; Gram Negative; read-out: MIC
Summary of the method: as §1

[25] = system: Prot. vulgaris 1028 BC; settings: Proteus vulgaris, 1028BC
Summary of the method: as §1

[26] = system: Ps. aeruginosa 18SH; settings: Pseudomonas aeruginosa, constitutive ß-lactamase producer, Gram Negative
Summary of the method: as §1

[27] = system: Ps. aeruginosa 1937E; settings: Pseudomonas aeruginosa, Gram Negative
Summary of the method: as §1

[28] = system: Ps. aeruginosa 56; settings: Pseudomonas aeruginosa, Gram Negative
Summary of the method: as §1

[29] = system: Ps. aeruginosa 765; settings: Pseudomonas aeruginosa, Gram Negative
Summary of the method: as §1

[30] = system: Ps. aeruginosa ATCC 27853; settings: Pseudomonas aeruginosa, ATCC27853, Gram Negative
Summary of the method: as §1

[31] = system: Ps. aeruginosa B; settings: Pseudomonas aeruginosa, Gram Negative
Summary of the method: as §1

[32] = system: Pseudomonas aeruginosa 5712; settings: Gram Negative
Summary of the method: as §1

[33] = system: Ser. marcescens 1071; settings: Serratia marcescens; Ser. marcescens 1071; Gram Negative; read-out: MIC
Summary of the method: as §1

[34] = system: Serratia marcescens SM; settings: Serratia marcescens SM; constitutive ß-lactamase producer; Gram Negative; read-out: MIC
Summary of the method: as §1

[35] = system: Staph. aureus 3647B; settings: Staphylococcus aureus; Staph. aureus 3647B; Gram Positive and Others; read-out: MIC
Summary of the method: as §1

[36] = system: Staph. aureus 404; settings: Staphylococcus aureus; Staph. aureus 404; Gram Positive and Others; read-out: MIC
Summary of the method: as §1

[37] = system: Staph. aureus 753; settings: Staphylococcus aureus; Staph. aureus 753; methicillin-resistant; Gram Positive and Others; read-out: MIC
Summary of the method: as §1

[38] = system: Staph. aureus 95; settings: Staphylococcus aureus; Staph. aureus 95; Gram Positive and Others; read-out: MIC
Summary of the method: as §1

[39] = system: Staph. aureus Evans; settings: Staphylococcus aureus
Summary of the method: as §1

[40] = system: Xan. maltophilia 2897B; settings: Stenotrophomonas maltophilia, Gram Negative
Summary of the method: as §1

Row | SMILES | MIC [1] [µg/mL] | MIC [3] [µg/mL] | MIC [4] [µg/mL] | MIC [5] [µg/mL] | MIC [6] [µg/mL] | MIC [8] [µg/mL] | MIC [9] [µg/mL] | MIC [10] [µg/mL] | MIC [13] [µg/mL] | MIC [14] [µg/mL] | MIC [15] [µg/mL] | MIC [16] [µg/mL] | MIC [17] [µg/mL] | MIC [18] [µg/mL] | MIC [19] [µg/mL] | MIC [22] [µg/mL] | MIC [23] [µg/mL] | MIC [24] [µg/mL] | MIC [25] [µg/mL] | MIC [26] [µg/mL] | other results
1 | N#CCC(=O)N[C@@H]1C(=O)N2C(C(=O)O)=C(COC(=O)NC3CCN(c4c(F)cc5c(=O)c(C(=O)O)cn(C6CC6)c5c4F)C3)CS[C@H]12 (some centres unmarked) [Formula Ib, [6R,7R]-3-[[[[[1-(3-Carboxy-1-cyclopropyl-6,8-difluoro-1,4-dihydro-4-oxo-7-quinolinyl-3-[R,S]-pyrrolidinyl]-amino]carbonyl]oxy]methyl]-7-[(cyanoacetyl)amino]-8-oxo-5-thia-1-azabicyclo[4.2.0]oct-2-ene-2-carboxyiic acid monosodium salt] | 0.0625 | > 128 | 0.25 | 0.0625 | 0.0625 | 0.0625 | 0.0625 | ≤ 0.0156 | 0.25 | 0.0156 | 0.125 | 0.125 | 0.25 | 0.0313 | 0.125 | 0.25 | 0.25 | 0.25 | 0.125 | 0.5 | MIC ([2]; Bacillus subtilis, 558): 0.125 µg/mL; MIC ([7]; E. coli 1573E, Gram Negative, read-out: MIC): 0.0625 µg/mL; MIC [11]; 4: 0.125 µg/mL; MIC ([12]; E. coli ATCC 25922, Gram Negative, read-out: MIC): 0.0625 µg/mL; MIC ([20]; K. oxytoca 1082EN, Gram Negative, read-out: MIC): 0.0625 µg/mL; MIC ([21]; Micrococcus luteus): 0.125 µg/mL; MIC [27]: 0.5 µg/mL; MIC [28]: 0.5 µg/mL; MIC [29]: 1 µg/mL; MIC [30]: 1 µg/mL; MIC [31]: 0.25 µg/mL; MIC [32]: 2 µg/mL; MIC [33]: 0.25 µg/mL; MIC [34]: 0.25 µg/mL; MIC [35]: 0.25 µg/mL; MIC [36]: 0.25 µg/mL; MIC [37]: 0.25 µg/mL; MIC [38]: 0.25 µg/mL; MIC [39]: 0.125 µg/mL; MIC [40]: 0.25 µg/mL
2 | O=C(Cc1cccs1)N[C@@H]1C(=O)N2C(C(=O)O)=C(COC(=O)N3CCN(c4c(F)cc5c(=O)c(C(=O)O)cn(C6CC6)c5c4F)CC3)CS[C@H]12 [Formula Ia, [6R,7R]-3-[[[[4-(3-Carboxy-1-cyclopropyl-6,8-difluoro-1,4-dihydro-4-oxo-7-quinolinyl)-1-piperazinyl]carbonyl]-oxy]-methyl]-8-oxo-7-[(2-thienylacetyl)amino]-5-thia-1-azabicyclo-[4.2.0]oct-2-ene-2-carboxylic acid] | 0.125 | > 128 | 0.25 | 0.0313 | 0.0313 | 0.0313 | 0.0313 | ≤ 0.0156 | 0.25 | ≤ 0.0156 | 0.0625 | 0.0625 | 0.125 | ≤ 0.0156 | 0.0625 | 0.125 | 0.125 | 0.5 | 0.0625 | 1 | MIC ([2]; Bacillus subtilis 558, Gram Positive and Others, read-out: MIC): 0.0313 µg/mL; MIC ([7]; 1573E): 0.0625 µg/mL; MIC ([11]; E. coli 4, Gram Negative, read-out: MIC): 0.125 µg/mL; MIC [12]: 0.0625 µg/mL; MIC ([20]; 1082EN): 0.0625 µg/mL; MIC ([21]; Micrococcus luteus PCI, Gram Positive and Others, read-out: MIC): ≤ 0.0156 µg/mL; MIC [27]: 1 µg/mL; MIC [28]: 1 µg/mL; MIC [29]: 2 µg/mL; MIC [30]: 1 µg/mL; MIC [31]: 0.5 µg/mL; MIC [32]: 2 µg/mL; MIC [33]: 0.125 µg/mL; MIC [34]: 0.5 µg/mL; MIC [35]: 0.5 µg/mL; MIC [36]: 0.5 µg/mL; MIC [37]: 0.5 µg/mL; MIC [38]: 0.5 µg/mL; MIC ([39]; Staph. aureus Evans, Gram Positive and Others, read-out: MIC): 0.5 µg/mL; MIC [40]: 1 µg/mL
